Patent US20060105458A1, “Caged tetracycline (derivatives), their generation, and their use for photoactivated gene expression” (priority 2002, published 2006)

How the values were obtained:
[1] = tested on: tet-dependent chloramphenicol transferase (CAT) construct in organotypic hippocampal Müller cultures; assay: Photoactivation of organotypic hippocampal Müller cultures (tet-dependent CAT transgene, immunohistochemistry); format: cell-based, rat or mouse
Procedure: FIG. 3 depicts a second assay to test photoactivation in tissues, exemplified by the use of organotypic hippocampal Müller cultures. […] After administration of caged doxycycline to the cells by adding it to the medium and subsequent photoactivation, CAT expression was assessed immuno-histochemically. […] CAT expression in the irradiated slice is mainly seen in cells at the border of the slice where cells become infected with viruses much more rapidly than in the center.
FIG. 4 illustrates the result of a further experiment performed by the present inventors. That is, in order to test if photoactivated gene expression can be used to induce gene expression in a locally restricted manner, adenovirus-infected Müller cultures were irradiated only in one half of the slice. […] Again, fluorescence is mostly seen at the slice boundary where the virus most readily infects cells of the culture. Thus, photoactivated gene expression provides the researcher with excellent spatial control over gene expression.
Mouse or rat hippocampal Müller cultures were prepared according to standard procedures from P5-7 animals. […] Following overnight incubation, 0.15 μM caged doxycycline was added to the medium, incubated for 1 h, and slices or selected regions of slices were irradiated for 10 sec with an upright fluorescence microscope using an appropriate filter (XF3000, OMEGA OPTICAL). Following overnight incubation, CAT fluorescence was detected immunohistochemically with a polyclonal anti-CAT antibody (Sigma).

[2] = tested on: CHO cells expressing the fusion protein and containing a tetracycline-dependent EGFP construct; assay: Photoactivation of CHO cells (EGFP reporter); format: cell-based
Procedure: CHO cells mentioned above (that is, cells expressing the fusion protein^3 and containing a tetracycline-dependent EGFP) were used as a simple cell culture assay were propagated and plated according to standard cell culture procedures in Ham's F-12 medium. Cells were plated in 35 mm dishes with a glass bottom from Mattek. Two days after plating, cells were overlaid with 1% low-gelling agarose in Ham's F-12 containing 1 mM Na-butyrate and 0.3 μM caged doxycycline. Subsequently, a subset of cells was locally irradiated with a hand-held 6W UV lamp (365 nm) for 30 sec. Following overnight incubation, EGFP expression was assessed with a fluorescence microscope.

[3] = tested on: tet-dependent GFP construct in organotypic hippocampal Müller cultures; assay: Photoactivation of organotypic hippocampal Müller cultures (tet-dependent GFP transgene); format: cell-based, rat or mouse; conditions: 1.5 μM, optical fiber 200 μm, irradiated three times for 2 min with an interval of 1 hour
Procedure: FIG. 5 depicts a modified assay to test photoactivation in tissues, exemplified again by the use of organotypic hippocampal Müller cultures. […] To determine the maximal level of GFP expression that is possible with this approach, unmodified doxycycline was added in saturating concentrations (2 μM). […] The bright-field image on the right allows normal visualization of the culture (FIG. 5b).
FIG. 6: In a new set of experiments, photoactivation was done by using thin optical fibers (200 μm) for irradiation with the UV light coming from a Xenon arc lamp. The UV beam could be positioned with the help of a recording electrode that was aligned to be in the center of the circular irradiation area. About half of the culture was irradiated with this arrangement. The position of the electrode is indicated by the red dot. The culture was incubated with 1.5 μM caged doxycycline one hour prior to irradiation. Cultures were irradiated three times for 2 min with an interval of 1 hour. […] FIG. 6b indicates the electrode position relative to the whole culture.

[4] = final concentration 0.1 to 1 μM, within 24 h at 37° C.

Compound	Local expression of genes/transgenes on irradiation ([1]; irradiated CHO cells or organotypic hippocampal Müller cultures)	EGFP fluorescence, irradiated cells ([2]; CHO cells incubated with caged compound (0.3 μM), UV 365 nm 30 sec, overnight incubation)	EGFP fluorescence, cells not irradiated ([2]; cells in the same dish that were not irradiated)	CAT expression, unirradiated control slice ([1]; no irradiation)	CAT expression, irradiated slice ([1]; single pulse of UV irradiation, 0.15 μM caged doxycycline)	GFP expression after local UV irradiation [3]	Spontaneous decomposition under incubation conditions [4]
COc1cc(C(C)O[C@]23C(=O)C(C(N)=O)=C(O)[C@H](N(C)C)[C@H]2[C@H](O)[C@@H]2C(=C3O)C(=O)c3c(O)cccc3[C@H]2C)c([N+](=O)[O-])cc1OC (stereo partly shown) [DMNPE-caged doxycycline, 1-(4,5-dimethoxy-2-nitrophenyl)-ethyl-caged doxycycline]	specific, time-dependent, and local expression of genes/transgenes	widespread EGFP fluorescence	did not fluoresce				
1-(4,5-dimethoxy-2-nitrophenyl)-ethyl-caged doxycycline [DMNPE-caged doxycycline]				did not display any CAT expression	CAT expression in a few cells	GFP positive cells that are within the circular irradiation area	about 10%
